The target in assay [1] is T1, chABCD1 (chimeric ABCD1) (Homo sapiens, UniProt P33897).
T1 construct: single polypeptide: N-terminal FLAG tag, PMP-4 residues 1-65 replacing human ABCD1 residues 1-63, then human ABCD1 64-745; HEK293F; homodimer; LMNG/CHS for assays, digitonin for cryo-EM; with PMP-4 (peroxisomal membrane protein related, ABCD1 homolog, Caenorhabditis elegans; N-terminal segment fused to the target chain)
T1 sequence (P33897 64-745): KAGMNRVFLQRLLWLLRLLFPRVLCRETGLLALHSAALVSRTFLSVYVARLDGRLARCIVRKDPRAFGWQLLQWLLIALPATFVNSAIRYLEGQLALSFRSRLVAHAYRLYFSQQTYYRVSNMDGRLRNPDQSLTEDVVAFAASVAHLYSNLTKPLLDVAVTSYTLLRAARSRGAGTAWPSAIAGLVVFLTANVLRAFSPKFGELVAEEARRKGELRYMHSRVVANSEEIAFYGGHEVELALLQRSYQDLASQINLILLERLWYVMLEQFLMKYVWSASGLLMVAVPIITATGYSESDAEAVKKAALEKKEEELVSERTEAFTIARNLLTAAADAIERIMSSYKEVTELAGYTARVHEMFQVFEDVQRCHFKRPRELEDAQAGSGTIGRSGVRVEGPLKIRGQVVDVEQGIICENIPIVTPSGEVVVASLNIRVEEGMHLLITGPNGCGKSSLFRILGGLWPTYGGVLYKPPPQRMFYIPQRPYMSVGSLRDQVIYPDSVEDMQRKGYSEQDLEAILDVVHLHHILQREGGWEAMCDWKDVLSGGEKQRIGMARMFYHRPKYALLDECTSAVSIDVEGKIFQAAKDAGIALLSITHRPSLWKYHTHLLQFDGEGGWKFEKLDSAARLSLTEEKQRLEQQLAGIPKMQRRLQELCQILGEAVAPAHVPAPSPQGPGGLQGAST
The assay can be described thus: substrate-stimulated ATPase assay (colorimetric Pi release). In kind it is biochemical.

The target of assay [2] is T2, chABCD1 (chimeric ABCD1) (Homo sapiens, UniProt P33897, R152A).
T2 construct: single polypeptide: N-terminal FLAG tag, PMP-4 residues 1-65 replacing human ABCD1 residues 1-63, then human ABCD1 64-745; HEK293F; homodimer; LMNG/CHS for assays, digitonin for cryo-EM; with PMP-4 (peroxisomal membrane protein related, ABCD1 homolog, Caenorhabditis elegans; N-terminal segment fused to the target chain)
T2 sequence (P33897 64-745 R152A): T1 sequence (P33897 64-745) with R89A
Described as above. Particulars: 5 μM C22:0-CoA, 2 mM ATP, 2 mM MgCl2, LMNG + CHS, pH 7.5, 37 °C. It counts as biochemical.

Molecules are shown by their SMILES. Where a chain is given by its changes, count along the chain named.

The term EC50 denotes the concentration that produces a half-maximal response.

Compound `CCCCCCCCCCCCCCCCCCCCCC(=O)SCCNC(=O)CCNC(=O)[C@H](O)C(C)(C)COP(=O)(O)OP(=O)(O)OC[C@H]1O[C@@H](n2cnc3c(N)ncnc32)[C@H](O)[C@@H]1OP(=O)(O)O` [C22:0-CoA] showed a concentration for a half-maximal effect (EC50) in assay [1] of roughly 2000 nM. The “relative ATPase activity” value in assay [2] is listed as “displayed significantly decreased substrate-simulated ATPase activity, compared to the wild-type”.

For the origin of these results see paper PMC9177597, “Structural basis of substrate recognition and translocation by human very long-chain fatty acid transporter ABCD1” (Nature Communications, 2022).
